Measured values taken from patent publication US9273057B2 (Bristol-Myers Squibb Company, priority 2012, dated 2016).
Where a name gives a salt, the structure may show the parent alone.

target: CK2A1 (CK2α/β) (Homo sapiens, UniProt P68400); test: CK2 kinase assay, CK2A1 (CK2α/β); assay type: biochemical; conditions: Table A; read-out: CK2A1 (CK2α/β) (IC50)
Sequence (P68400 whole entry, species assumed): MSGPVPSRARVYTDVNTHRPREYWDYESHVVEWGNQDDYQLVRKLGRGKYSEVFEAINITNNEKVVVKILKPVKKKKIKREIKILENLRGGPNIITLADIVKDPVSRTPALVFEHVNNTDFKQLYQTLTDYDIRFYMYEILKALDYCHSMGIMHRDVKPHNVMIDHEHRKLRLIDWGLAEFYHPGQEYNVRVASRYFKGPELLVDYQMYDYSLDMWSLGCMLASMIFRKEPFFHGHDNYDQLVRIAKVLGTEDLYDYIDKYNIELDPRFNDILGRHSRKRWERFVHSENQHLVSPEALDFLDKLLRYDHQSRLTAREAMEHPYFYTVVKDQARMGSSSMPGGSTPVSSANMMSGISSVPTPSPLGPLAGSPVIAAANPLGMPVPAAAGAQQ
Sequence (P67870 whole entry partner, species assumed): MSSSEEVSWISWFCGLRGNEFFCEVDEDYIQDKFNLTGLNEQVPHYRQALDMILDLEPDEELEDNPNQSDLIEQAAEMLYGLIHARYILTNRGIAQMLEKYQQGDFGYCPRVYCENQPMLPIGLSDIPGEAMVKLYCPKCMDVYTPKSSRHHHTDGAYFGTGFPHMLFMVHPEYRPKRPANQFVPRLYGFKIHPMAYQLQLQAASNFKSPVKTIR

IC50	SMILES
0.35 nM	COC(=O)N1CC(N2CCC(c3cc(C#N)cc(Nc4nc(NC5CC5)c5ncc(C#N)n5n4)c3Cl)CC2)C1 [Example 320, methyl 3-(4-(2-chloro-5-cyano-3-((7-cyano-4-(cyclopropylamino)imidazo[2,1-f][1,2,4]triazin-2-yl)amino)phenyl)piperidin-1-yl)azetidine-1-carboxy]
0.62 nM	N#Cc1cc(Nc2nc(NC3CC3)c3ncc(C#N)n3n2)c(Cl)c(C2CCN(C(=O)C3(O)CC3)CC2)c1 [Example 232, 2-((2-chloro-5-cyano-3-(1-((1-hydroxycyclopropyl)carbonyl)-4-piperidinyl)phenyl)amino)-4-(cyclopropylamino)imidazo[2,1-f][1,2,4]triazine-7-carbonitrile]
1.77 nM	CN(C)CC(=O)Nc1cc(C#N)cc(Nc2nc(NC3CC3)c3ncc(C#N)n3n2)c1Cl [Example 620, N-(2-chloro-5-cyano-3-((7-cyano-4-(cyclopropylamino)imidazo[2,1-f][1,2,4]triazin-2-yl)amino)phenyl)-2-(dimethylamino)acetamide]
1.7 nM	CC(C)(C)N1CCN(Cc2cc(C#N)cc(Nc3nc(NC4CC4)c4ncc(C#N)n4n3)c2Cl)CC1 [Example 472, 2-((3-[(4-tert-butylpiperazin-1-yl)methyl]-2-chloro-5-cyanophenyl}amino)-4-(cyclopropylamino)imidazo[2,1-f][1,2,4]triazine-7-carbonitrile]
3.86 nM	CC(C)(C)CC(=O)N1CCC(c2cc(C#N)cc(Nc3nc(NC4CC4)c4ncc(C#N)n4n3)c2Cl)CC1 [Example 235, 2-((2-chloro-5-cyano-3-(1-(3,3-dimethylbutanoyl)-4-piperidinyl)phenyl)amino)-4-(cyclopropylamino)imidazo[2,1-f][1,2,4]triazine-7-carbonitrile]
0.64 nM	CC(O)CNC1CCN(c2cc(C#N)cc(Nc3nc(NC4CC4)c4ncc(C#N)n4n3)c2Cl)CC1 (racemic) [Example 138, (+/−).2-(2-chloro-5-cyano-3-(4-(2-hydroxypropylamino)piperidin-1-yl)phenylamino)-4-(cyclopropylamino)imidazo [1,2-f][1,2,4]triazine-7-carbonitrile]
0.8 nM	N#Cc1cc(Nc2nc(NC3CC3)c3ncc(C#N)n3n2)c(Cl)c(C2CCN(C3CN(C(=O)C(F)(F)F)C3)CC2)c1 [Example 638, 2-((2-chloro-5-cyano-3-(1-(1-(2,2,2-trifluoroacetyl)azetidin-3-yl)piperidin-4-yl)phenyl)amino)-4-(cyclopropylamino)imidazo[2,1-f][1,2,4]triazine-7-carbonitrile]
3.06 nM	CC(C)(O)[C@H](F)CNC1CCN(c2cc(C#N)cc(Nc3nc(NC4CC4)c4ncc(C#N)n4n3)c2Cl)CC1 [Example 137, 2-((2-chloro-5-cyano-3-(4-(((2R)-2-fluoro-3-hydroxy-3-methylbutyl)amino)-1-piperidinyI)phenyl)amino)-4-(cyclopropylamino)imidazo [2,1-f][1,2,4]triazine-7-carbonitrile]

The remaining lines, values behind:

SMILES	IC50
COC(=O)N[C@@H]1C[C@@H]2CN(c3cc(C#N)cc(Nc4nc(NC5CC5)c5ncc(C#N)n5n4)c3Cl)C[C@@H]2C1 [Example 13, (+/−) methyl ((3aR,5r,6aS)-2-(2-chloro-5-cyano-3-((7-cyano-4-(cyclopropylamino)imidazo [2,1-f][1,2,4]triazin-2-yl)amino)phenyl)octahydro-cyclopenta[c]pyrrol-5-yl)carbamate]	1.7 nM
CN(CCNC1COC1)c1cc(Cl)c(Nc2nc(NC3CC3)c3ncc(C#N)n3n2)cc1C#N [Example 413, 2-((2-chloro-5-cyano-4-(methyl(2-(oxetan-3-ylamino)ethyl)amino)phenyl)amino)-4-(cyclopropylamino)imidazo[2,1-f][1,2,4]triazine-7-carbonitrile]	0.39 nM
CO[C@@H]1CN(c2cc(C#N)cc(Nc3nc(NC4CC4)c4ncc(C#N)n4n3)c2Cl)C[C@@H]1NC(=O)OC1COC1 [Example 291, 3-oxetanyl ((3S,4R)-1-(2-chloro-5-cyano-3-((7-cyano-4-(cyclopropylamino)imidazo[2,1-f][1,2,4]triazin-2-yl)amino)phenyl)-4-methoxy-3-pyrrolidinyl)carbamate]	0.59 nM
CC(C)(O)C1CN(C2CN(c3cc(C#N)cc(Nc4nc(NC5CC5)c5ncc(C#N)n5n4)c3Cl)C2)CCO1 (racemic) [Example 165, (+/−)2-(2-chloro-5-cyano-3-(3-(2-(2-hydroxypropan-2-yl)morpholino)azetidin-1-yl)phenylamino)-4-(cyclopropylamino)imidazo [1,2-f][1,2,4]triazine-7-carbonitrile]	0.54 nM
N#Cc1cc(Nc2nc(NC3CC3)c3ncc(C#N)n3n2)c(Cl)c(N2CCOC(C(=O)N3CCOCC3)C2)c1 (racemic) [Example 300, (+/−)2-((2-chloro-5-cyano-3-(2-(morpholine-4-carbonyl)morpholino)phenyl)amino)-4-(cyclopropylamino)imidazo[2,1-J][1,2,4]triazine-7-carbonitrile]	1.62 nM
COC(=O)N[C@@H]1CN(c2cc(C#N)cc(Nc3nc(NC4CC4)c4ncc(C#N)n4n3)c2Cl)C[C@H]1O (racemic) [Example 9, (+/−) methyl ((3R,4R)-1-(2-chloro-5-cyano-3-((7-cyano-4-(cyclopropylamino)imidazo [2,1-f][1,2,4]triazin-2-yl)amino)phenyl)-4-hydroxy-3-pyrrolidinyl)carbamate]	0.66 nM
CCNc1nc(-n2cc([C@@H]3C[C@H]3CN(C)C)c3ccc(C#N)cc32)nn2c(C#N)cnc12 (single isomer, unassigned) [Example 775]	2.35 nM
CN(C)C(=O)C1CN(c2cc(C#N)cc(Nc3nc(NC4CC4)c4ncc(C#N)n4n3)c2Cl)CCN1CC(C)(C)O (stereo not drawn) [Example 317, 4-(2-chloro-5-cyano-3-((7-cyano-4-(cyclopropylamino)imidazo [2,1-f][1,2,4]triazin-2-yl)amino)phenyl)-1-(2-hydroxy-2-methylpropyl)-N,N-dimethylpiperazine-2-carboxamide]	0.99 nM
N#Cc1cc(Nc2nc(NC3CC3)c3ncc(C#N)n3n2)c(Cl)c(N2CCN3C[C@H](O)C[C@@H]3C2)c1 (racemic) [Example 435, (+/−)-2-((2-chloro-5-cyano-3-((7R,8aR)-7-hydroxyhexahydropyrrolo[1,2-a]pyrazin-2(1H)-yl)phenyl)amino)-4-(cyclopropylamino)imidazo[2,1-f][1,2,4]triazine-7-carbonitrile]	1.13 nM
COCCN1CC(N2CCN(c3cc(C#N)cc(Nc4nc(NC5CC5)c5ncc(C#N)n5n4)c3Cl)CC2)C1 [Example 61, 2-((2-chloro-5-cyano-3-(4-(1-(2-methoxyethyl)-3-azetidinyl)-1-piperazinyl)phenyl)amino)-4-(cyclopropylamino) imidazo[2,1-f][1,2,4] triazine-7-carbonitrile]	0.96 nM
CCNc1nc(Nc2cc(C#N)cc(C3CN(C(=O)CC#N)C3)c2Cl)nn2c(C#N)cnc12 [Example 369, 2-((2-chloro-5-cyano-3-(1-(2-cyanoacetyl)azetidin-3-yl)phenyl)amino)-4-(ethylamino)imidazo[2,1-f][1,2,4]triazine-7-carbonitrile]	1.58 nM
CN1CC(OC(=O)N2CCN(c3cc(C#N)cc(Nc4nc(NC5CC5)c5ncc(C#N)n5n4)c3Cl)CC2)C1 [Example 592, 1-methylazetidin-3-yl 4-(2-chloro-5-cyano-3-{[7-cyano-4-(cyclopropylamino)imidazo [2,1-f][1,2,4]triazin-2-yl]amino}phenyl) piperazine-1-carboxylate]	0.44 nM
CN(CCO)CC(=O)Nc1cc(C#N)cc(Nc2nc(NC3CC3)c3ncc(C#N)n3n2)c1Cl [Example 619, N-(2-chloro-5-cyano-3-((7-cyano-4-(cyclopropylamino)imidazo[2,1-f][1,2,4]triazin-2-yl)amino)phenyl)-2-((2-hydroxyethyl)(methyl)amino)acetamide]	1.66 nM
CO[C@@H]1CN(c2cc(C#N)cc(Nc3nc(NC4CC4)c4ncc(C#N)n4n3)c2Cl)C[C@H]1O (racemic) [Example 305, (+/−)-2-((2-chloro-5-cyano-3-((3R,4R)-3-hydroxy-4-methoxypyrrolidin-1-yl)phenyl)amino)-4-(cyclopropylamino)imidazo[2,1-f][1,2,4]triazine-7-carbonitrile, HCl]	0.65 nM
C[C@@H](O)CN1CC(N2CCN(c3cc(C#N)cc(Nc4nc(NC5CC5)c5ncc(C#N)n5n4)c3Cl)CC2)C1 [Example 588, 2-{[2-chloro-5-cyano-3-(4-{1-[(2R)-2-hydroxypropyl]azetidin-3-yl}piperazin-1-yl)phenyl]amino}-4-(cyclopropylamino)imidazo [2,1-f][1,2,4]triazine-7-carbonitrile]	3.08 nM
N#Cc1cc(Nc2nc(NC3CC3)c3ncc(C#N)n3n2)c(Cl)c(N2CC(N3CCC(O)C3)C2)c1 (racemic) [Example 159, (+/−) 2-((2-chloro-5-cyano-3-(3-(3-hydroxy-1-pyrrolidinyl)-1-azetidinyl)phenyl)amino)-4-(cyclopropylamino)imidazo [2,1-f][1,2,4]triazine-7-carbonitrile]	0.48 nM
N#Cc1cc(Nc2nc(NC3CC3)c3ncc(C#N)n3n2)c(Cl)c([C@H]2CCC[C@H](NC[C@H]3CCCO3)C2)c1 [Example 728, 2-({2-chloro-5-cyano-3-[(1S,3S)-3-{[(2R)-oxolan-2-ylmethyl]amino}cyclohexyl]phenyl}amino)-4-(cyclopropylamino)imidazo [2,1-f][1,2,4]triazine-7-carbonitrile]	1.38 nM
N#Cc1cc(Nc2nc(NC3CC3)c3ncc(C#N)n3n2)c(Cl)c(C(O)CO)c1 (racemic) [Example 681, (+/−)-2-((2-chloro-5-cyano-3-(1,2-dihydroxyethyl)phenyl)amino)-4-(cyclopropylamino)imidazo[2,1-f][1,2,4]triazine-7-carbonitrile]	0.64 nM
CCNc1nc(Nc2ccc3c(c2)c(C#N)cn3C2CCN(C3COCC3O)CC2)nn2c(C#N)cnc12 (racemic) [Example 825, (+/−)-2-((3-cyano-1-(1-(4-hydroxytetrahydrofuran-3-yl)piperidin-4-yl)-1H-indol-5-yl)amino)-4-(ethylamino)imidazo[2,1-f][1,2,4]triazine-7-carbonitrile]	0.3 nM
